The numbers were not newly measured in US20250352504A1, “LEVOCARNITINE AND TRIMETAZIDINE BILAYER TABLET AND PREPARATION METHOD THEREOF” (Changzhou High-tech Industrial Development Zone 3D …, priority 2024, published 2025), which cites them from elsewhere.

Structures can show the parent of a compound that is named as a salt. Where two headings read alike, the source gives them in different places.

The conditions of data set [1]: crystalline powder.

Turning to `C[N+](C)(C)C[C@H](O)CC(=O)[O-]` [Levocarnitine, (3R)-3-hydroxy-4-(trimethylammonio) butanoate], the solubility result (acetone) is reported as “almost insoluble”; the solubility entry (ethanol) is on record as “readily soluble”; the solubility result (ether) was “almost insoluble”; the solubility entry (formic acid) is on record as “easily soluble”; the solubility result (water) is given as “readily soluble”. For the same compound, the hygroscopicity result in data set [1] is listed as “strong hygroscopicity”.
As for `COc1ccc(CN2CCNCC2)c(OC)c1OC` [Trimetazidine dihydrochloride, 1-(2,3,4-Trimethoxybenzyl) piperazine dihydrochloride], the solubility result reads like this: (0.1 mol/L hydrochloric acid solution) “highly soluble”; (0.1 mol/L sodium hydroxide solution) “highly soluble”; (acetic acid) “easily soluble”; (ethanol) “slightly soluble”; (ether) “almost insoluble”; (methanol) “soluble”. Also, the solubility result (water) is “highly soluble”.
